Format in all cases: physicochemical
A short description of series [1]: Rheology testing of coacervate suspensions. On the procedure:
(§1) NaCl) was used to study ionic strength effects. The absorbance was further converted to turbidity using methods previously described 1 and data was plotted as relative turbidity.
(§2) Optical microscopy and dynamic light scattering (DLS)
Droplets were visualized in 1×PBS using NCI Leica DMC4500 microscope in reflection mode with differential interference contrast. Images were captured with a DMC4500 camera under the control of Leica LAS X software (version 3.4.2). Coacervate size was measured using 1 mM peptide solutions (1×PBS, pH 7.4) on a ZEN 3600 Zetasizer (Malvern Instruments, UK) using DLS-Zen 0040 specialized cuvettes. The results were reported as the means of three measurements, with 14 scans for each measurement.
Transmission electron microscopy (TEM)
Peptide solutions prepared for TEM were applied directly to 200-mesh, carbon-coated copper grids for 2 min and stained with 1% uranyl formate for 1 min. Excess stain was blotted using filter paper. Brightfield images were taken with a JEOL JEM-1400 transmission electron microscope with a NANOSPRT15 camera at an accelerating voltage of 120 kV.
Viscosity of the peptide solutions (1 mM or 2 mM) was tested using an ARES 2000ex rotational rheometer (TA Instruments, New Castle, DE). Peptides were freshly solubilized, and 170 µL of each was pipetted onto the rheometer stage. A 20-mm parallel plate geometry was lowered to a gap of 200 µm. Storage modulus (G′) and loss modulus (G″) were measured as a function of angular frequency (1–10 rad/s) with 1% strain. Viscosity was measured as a function […]
of shear rate (1–100 s-1). Separately, viscosity was measured using a Hagen-Poiseuille viscometer (RheoSense microVISC, San Ramon, CA) at a shear rate of 2500 s-1 to confirm viscosity differences at two different concentrations (1 mM and 2 mM).
Computational simulations
All simulations were performed using GROMACS 2023 2,3 and the CHARMM36m 4 force field. The necessary force field parameters and input files were generated using AlphaFold 5 predicted structures coupled with CHARMM-GUI 6. A single peptide chain was solvated in a 5-nm cubic box. […]

Series [2] in a line: Encapsulation efficiency measurement. The following applies: 1 mM peptide, 1 µM eGFP in PBS; centrifuged 15,000 × g 10 min; fluorescence of supernatant (λex 395 nm, λem 510 nm). On the procedure:
Encapsulation efficiency measurements […]
powders to a final peptide concentration of 1 mM. Cargo concentrations in the stock solutions […]
nm and λem: 519 nm). For small molecule dyes, similar methods were used. The encapsulation efficiency was determined as reported previously 12.
Cellular uptake and antigen presentation assays […]
to addition of OVA-loaded coacervates. Final OVA concentration was 1 µg/mL for time- […]
37°C and complete RPMI media served as controls. Soluble OVA and PBS treated cells were used as controls for antigen delivery.

Series [3] can be described thus: Critical concentration (Ccrit) of coacervate formation. The following applies: 1× PBS, pH 7.4; enantiomeric variants identical. From the text: Peptide synthesis and purification
The L- and D-enantiomers of (GHGLY)4, (GHGVY)4 and (GHGPY)4 peptides were purchased from GenScript and used without further modification. (GHGAY)4, (GHGFY)4, (GHGIY)4 and (GHGNY)4 were synthesized using standard Fmoc-SPPS chemistry on Rink Amide with Oxyma (Ethyl cyano(hydroxyimino) acetate) and N, N′-diisopropylcarbodiimide (DIC) as coupling agents on a Liberty Blue microwave-assisted synthesizer. Peptides were cleaved using a cocktail of trifluoroacetic acid (TFA), tri-isopropyl silane (TIS), and H2O (95:2.5:2.5) and extracted and washed in cold diethyl ether. The resulting pellet was dissolved in acetonitrile/water mixture (50:50) and frozen prior to lyophilization. Peptides were purified (~90%) using High Performance Liquid Chromatography (HPLC) on a Dionex Ultimate 3000 HPLC equipped with a diode-array detector on an Agilent Poroshell RP-C18 column (4.6 mm×150 mm), operating at a flow rate of 1 mL/min. Peaks corresponding to 220 nm were collected for MALDI -TOF mass analysis (Shimadzu MALDI-8030) using α-cyno-4-hydroxycinnamic acid matrix (Bruker Daltonics, MA).
Peptide solutions (0.25–1.5 mM) were prepared in 1×PBS at pH 7.4. Aliquots (140 µL) were pipetted into a 96-well plate and absorbance at 600 nm was measured over 24 h using a Synergy HT plate reader (Biotek, USA) at RT or 37°C with or without agitation. The pH dependence of LLPS formation was assessed in 0.1 M potassium phosphate buffer (with 150 mM NaCl) at different pH values (5.8, 6.6, 7.4, 8.0) and 1 mM peptide concentration. Similarly, 0.1 M potassium phosphate buffer (pH 7.4) with varying salt concent rations (0, 150, 250, 500, 1000 mM […]
Figure S10. Determination of Ccrit for (a) (GHGLY)4, (b) (GHGVY)4, (c) (GHGPY)4 and (d-f) their corresponding enantiomers (1 mM, 1× PBS, pH 7.4).
Table S1. Measured Ccrit values for (GHGXY)4 peptides used in this study.
(1 picture or pasted object on this page, not shown here)

Series [4] in a line: Optical microscopy of coacervate formation (LLPS). Particulars: optical microscopy, 1× PBS; across multiple synthesis batches.
Description: as §1, §2
Droplets were visualized in 1×PBS using NCI Leica DMC4500 microscope in reflection mode with differential interference contrast. Images were captured with a DMC4500 camera under the control of Leica LAS X software (version 3.4.2). […]

The nature of series [5]: Dynamic light scattering (DLS) droplet size. The following applies: 1 mM peptide, 1× PBS, pH 7.4; mean of 3 measurements with 14 scans each; identical for each pair of enantiomers. On the procedure: Optical microscopy and dynamic light scattering (DLS) […]
Coacervate size was measured using 1 mM
peptide solutions (1×PBS, pH 7.4) on a ZEN 3600 Zetasizer (Malvern Instruments, UK) using
DLS-Zen 0040 specialized cuvettes. The results were reported as the means of three
measurements, with 14 scans for each measurement. […]

Setting [6] is: angular frequency 1–10 rad/s, 1% strain.

Regarding (GHGLY)4 [GL 20], the “fold increase in G′ compared to valine droplets” value in series [1] (setting [6]) is ~3 fold. In series [1] (parallel plate rheology at fixed shear rate, 1 or 2 mM peptide, compared to valine or proline variants), the “viscosity of coacervate suspension” value is recorded as “greater viscosity”. Besides, the eGFP loading efficiency in series [2] was ~90%. In addition, the “critical concentration (Ccrit) of coacervate formation” value in series [3] is 0.5 mM. For the same substance, the coacervate formation result in series [4] is on record as “Consistent coacervate formation”. In series [5], the “droplet size (DLS)” value is on record as ~1.8 μm.

As to (GHGVY)4 [GV 20], the “fold increase in G′ compared to proline” value in series [1] (setting [6]) was 2 fold. Further, the eGFP loading efficiency in series [2] is listed as ~75%. Further, in series [3], the “critical concentration (Ccrit) of coacervate formation” value is 0.75 mM. For the same substance, the coacervate formation entry in series [4] is on record as “Consistent coacervate formation”. Further, in series [5], the “droplet size (DLS)” value was ~1.0 μm.

Values taken from paper PMC11955804, “Histidine-rich enantiomeric peptide coacervates enhance antigen sequestration and presentation to T cells” (Chemical Science, 2025).
